Test results: PubChem BioAssay AID1963986 (Molecular Pharmacology Branch, DTP, NCI, 2024)

Tested on: 171881-019-R-J1-PDC tumor spheroid viability
Test: Anticancer human tumor 171881-019-R-J1-PDC patient-derived invasive breast carcinoma cell line growth inhibition [PI3K]
Settings: spheroids with HUVEC and MSC; for IC50: curve of first compound; for viability, T/C: stronger effect = lower value
How it was run: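 Stroma-containing spheroids: tumor line, pooled-donor HUVEC, hMSC. Treatments: targeted agents with PI3K inhibitors. Dosing: clinically relevant, half-log spacing, 10 microM ceiling without known Cmax. Read-out: cell viability.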
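Also: spheroids exposed to compound for 7 days before viability read.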
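For viability, T/C in this document: 100% = DMSO vehicle-treated spheroids.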

C=CC(=O)N1CCN(c2nc(=O)n(-c3c(C)ccnc3C(C)C)c3nc(-c4c(O)cccc4F)c(F)cc23)C(C)C1 (configuration not stated) + CC(Nc1ncnc2nc[nH]c12)c1cc2cccc(Cl)c2c(=O)n1-c1ccccc1
IC50 (second compound 0.0316 µM): > 10 µM
IC50 (second compound 0.1 µM): > 10 µM
IC50 (second compound 0.316 µM): > 10 µM
IC50 (second compound 1 µM): > 10 µM
IC50 (second compound 3.16 µM): 9.1 µM
IC50 (second compound 10 µM): 5.29 µM
viability, T/C (second compound 0.0316 µM, first compound 0.0316 µM): 95.3%
viability, T/C (second compound 0.0316 µM, first compound 0.1 µM): 94.3%
viability, T/C (second compound 0.0316 µM, first compound 0.316 µM): 94.6%
viability, T/C (second compound 0.0316 µM, first compound 1 µM): 94.3%
viability, T/C (second compound 0.0316 µM, first compound 3.16 µM): 106%
viability, T/C (second compound 0.0316 µM, first compound 10 µM): 58.9%
viability, T/C (second compound 0.1 µM, first compound 0.0316 µM): 104%
viability, T/C (second compound 0.1 µM, first compound 0.1 µM): 88.7%
viability, T/C (second compound 0.1 µM, first compound 0.316 µM): 87.2%
viability, T/C (second compound 0.1 µM, first compound 1 µM): 84.1%
viability, T/C (second compound 0.1 µM, first compound 3.16 µM): 108%
viability, T/C (second compound 0.1 µM, first compound 10 µM): 57.6%
viability, T/C (second compound 0.316 µM, first compound 0.0316 µM): 108%
viability, T/C (second compound 0.316 µM, first compound 0.1 µM): 103%
viability, T/C (second compound 0.316 µM, first compound 0.316 µM): 98.9%
viability, T/C (second compound 0.316 µM, first compound 1 µM): 112%
viability, T/C (second compound 0.316 µM, first compound 3.16 µM): 105%
viability, T/C (second compound 0.316 µM, first compound 10 µM): 61%
viability, T/C (second compound 1 µM, first compound 0.0316 µM): 101%
viability, T/C (second compound 1 µM, first compound 0.1 µM): 105%
viability, T/C (second compound 1 µM, first compound 0.316 µM): 106%
viability, T/C (second compound 1 µM, first compound 1 µM): 112%
viability, T/C (second compound 1 µM, first compound 3.16 µM): 99.4%
viability, T/C (second compound 1 µM, first compound 10 µM): 53.4%
viability, T/C (second compound 3.16 µM, first compound 0.0316 µM): 96.3%
viability, T/C (second compound 3.16 µM, first compound 0.1 µM): 88.3%
viability, T/C (second compound 3.16 µM, first compound 0.316 µM): 90.6%
viability, T/C (second compound 3.16 µM, first compound 1 µM): 93.1%
viability, T/C (second compound 3.16 µM, first compound 3.16 µM): 88.2%
viability, T/C (second compound 3.16 µM, first compound 10 µM): 46.6%
viability, T/C (second compound 10 µM, first compound 0.0316 µM): 63.9%
viability, T/C (second compound 10 µM, first compound 0.1 µM): 60.9%
viability, T/C (second compound 10 µM, first compound 0.316 µM): 65.6%
viability, T/C (second compound 10 µM, first compound 1 µM): 68.6%
viability, T/C (second compound 10 µM, first compound 3.16 µM): 64.5%
viability, T/C (second compound 10 µM, first compound 10 µM): 32%
